The text below walks through data of US20260097026A1, “INHIBITION OF AORTIC VALVE CALCIFICATION” (priority 2022, published 2026).

Each structure is given as a SMILES string.

In this assay the test system is Human valve interstitial cells (VIC). As to the kind of experiment: Calcification inhibition in human valve interstitial cells (VIC); staining followed by spectroscopy. The assay is classed as cell-based. To be noted: VIC isolated from human aortic valves; calcification induced; test substance contacted during or after induced calcification; degree of calcification by staining and spectroscopy (FIG. 2, FIG. 3). The procedure: Human valve interstitial cells (VIC) are isolated from human aortic valves harvested during surgery for use in calcification inhibitor testing. After isolation, calcification is induced in the cells. The activity of potential inhibitors is assayed by contacting the VIC cells with the test substance during or after the induced calcification. The degree of calcification is measured by staining followed by spectroscopy. FIG. 1 provides photomicrographs of control cells (no induced calcification, left panel), cells where calcification is induced (middle panel), and calcification in the presence of an inhibitor (right panel).
With `COCCCOc1ccnc(C[S+]([O-])c2nc3ccccc3[nH]2)c1C` (stereo not shown) [Rabeprazole, rabeprazole], the inhibition of calcification result is recorded as “inhibition of calcification”. With `Cc1c(OCC(F)(F)F)ccnc1C[S+]([O-])c1nc2ccccc2[nH]1` (stereo not shown) [lansoprazole] the entry was “inhibition of calcification”; with `COc1ccc2[nH]c([S+]([O-])Cc3ncc(C)c(OC)c3C)nc2c1` (stereo not shown) [omeprazole], “inhibition of calcification”; with `COc1ccnc(C[S+]([O-])c2nc3cc(OC(F)F)ccc3[nH]2)c1OC` (stereo not shown) [pantoprazole], “inhibition of calcification”.
